Laboratory results taken from patent USRE48887E1, “RNA interference compositions and methods for malignant tumors” (Nitto Denko Corporation, priority 2014, dated 2022).
d = 2'-deoxy (DNA); m = 2'-O-methyl; r = 2'-OH (RNA); f = 2'-fluoro

Experiments:
[1] = system: A549 orthotopic lung cancer tumors; assay: Orthotopic A549 lung cancer mouse model; settings: 2 mg/kg
Description: The anti-tumor efficacy of the siRNA formulation against human lung cancer A549 was evaluated by comparing the final primary tumor weights measured at necropsy for the treatment group and the vehicle control group.
For this study, male NCr nu/nu mice, 5-6 weeks old, were used. The experimental animals were maintained in a HEPA filtered environment during the experimental period. The siRNA formulations were stored at 4° C. before use, and warmed to room temperature 10 minutes prior to injection in mouse.
For this A549 human lung cancer orthotopic model, on the day of surgical orthotopic implantation (SOI), the stock tumors were harvested from the subcutaneous site of animals bearing A549 tumor xenograft and placed in RPMI1640 medium. Necrotic tissues were removed and viable tissues were cut into 1.5-2 mm^3 pieces. The animals were anesthetized with isoflurane inhalation and the surgical area was sterilized with iodine and alcohol. A transverse incision approximately 1.5 cm long was made in the left chest wall of the mouse using a pair of surgical scissors. An intercostal incision was made between the third and the fourth rib and the left lung was exposed. One A549 tumor fragment was transplanted to the surface of the lung with an 8-0 surgical suture (nylon). The chest wall was closed with a 6-0 surgical suture (silk). The lung was re-inflated by intrathoracic puncture using a 3 cc syringe with a 25 G×1½ needle to draw out the remaining air in the chest cavity. The chest wall was closed with a 6-0 surgical silk suture.
Three days after tumor implantation, the model tumor-bearing mice were randomly divided into groups of ten mice per group. For the group of interest, treatment of the ten mice was initiated three days after tumor implantation.
For the group of interest, the formulation was (Ionizable lipid: cholesterol:DOPE:DOPC:DPPE-PEG-2K:DSPE-PEG-2K), a liposomal composition. The liposomes encapsulated the GST-π siRNA.
For the study endpoint, the experimental mice were sacrificed forty-two days after treatment initiation. […]

GST-π mRNA = assay: Knockdown of GST-π mRNA in A549 xenograft tumors in vivo; design: species or system mouse
PUMA = PUMA biomarker for apoptosis of cancer cells in vitro (qPCR); type: cell-based; settings: from 2-4 days after transfection; siRNA 10 nM
Description: The protocol for the PUMA biomarker was as follows. One day before transfection, cells were plated in a 96-well plate at 2×10^3 cells per well with 100 μl of DMEM (HyClone Cat. # SH30243.01) containing 10% FBS and cultured in a 37° C. incubator containing a humidified atmosphere of 5% CO2 in air. Next day, before transfection the medium was replaced with 90 μl of Opti-MEM I Reduced Serum Medium (Life Technologies Cat. #31985-070) containing 2% FBS. Then, 0.2 μl of Lipofectamine RNAiMAX (Life Technologies Cat. #13778-100) were mixed with 4.8 μl of Opti-MEM I for 5 minutes at room temperature. 1 μl of the siRNAs (stock conc. 1 μM) was mixed with 4 μl of Opti-MEM I and combined with the RNAiMAX solution and then mixed gently. The mixture was incubated for 10 minutes at room temperature to allow the RNA-RNAiMAX complexes to form. 10 μl of RNA-RNAiMAX complexes were added per well, to final concentration of the siRNA 10 nM. The cells were incubated for 2 hours and medium changed to fresh Opti-MEM I Reduced Serum Medium containing 2% FBS. […] PUMA (BBC3, Cat# Hs00248075, Life Technologies) mRNA levels were measured by qPCR with TAQMAN.
The protocol for the PUMA biomarker was as follows. […] PUMA (BBC3, Cat#Hs00248075, Life Technologies) mRNA levels were measured by qPCR with TAQMAN.

[2] = system: A549 cancer xenograft tumors; assay: A549 cancer xenograft model, tumor inhibition efficacy; type: in vivo, mouse; settings: 0.75 mg/kg IV, two injections (day 1 and 15)
Description: For the cancer xenograft model, an A549 cell line was obtained from ATCC. The cells were maintained in culture medium supplemented with 10% Fetal Bovine Serum and 100 U/ml penicillin and 100 μg/ml streptomycin. Cells were split 48 hrs before inoculation so that cells were in log phase growth when harvested. Cells were lightly trypsinized with trypsin-EDTA and harvested from tissue culture. The number of viable cells was counted and determined in a hemocytometer in the presence of trypan blue (only viable cells are counted). The cells were resuspended to a concentration of 5×10^7/ml in media without serum. […]
For tumor volume measurements and randomization, tumor size was measured to the nearest 0.1 mm. Tumor volumes were calculated using the formula: […]. […] Tumor volumes were monitored three times for week 1, twice for the rest of weeks, including the day of study termination. […]
For body weight, mice were weighed to the nearest 0.1 g. Body weights were monitored and recorded daily within 7 days post dosing for first dose. Body weights were monitored and recorded twice for weeks, for the rest of weeks, including the day of study termination.
For tumors collection, on 28 days post first dosing, tumor volume was measured, and tumor was dissected for weight measurement, and stored for PD biomarker study. Tumor weight was recorded. […]

Substance: SEQ ID NOs:61 and 126: GST-π siRNA; sense GAAGCCUUUUGAGACCCUAtt; antisense UAGGGUCUCAAAAGGCUUCag (sense GAAGCCUUUUGAGACCCUATT; antisense UAGGGUCUCAAAAGGCUUCAG; chemistry not given here)
- final tumor average weights reduced as compared to control ([1]; after 43 days, liposomal formulation, athymic nude mice): 2.8 fold
- mean body weight of the mice ([1]; entire experimental period): maintained within the normal range
- other symptoms of toxicity ([1]; entire experimental period): not observed
- reduction of GST-π mRNA (GST-π mRNA; 4 mg/kg, single injection, 24 hours after injection): about 40%
- GST-π mRNA expression (GST-π mRNA; 4 days after injection in a lipid formulation): significant reduction

Substance: SEQ ID NOs:156 and 182: GST-π siRNA, Table 2; sense GAAGCCUUUUGAGACCCUAUU; antisense fUAGgGuCuCAAAAGGCUUCUU (antisense UAGGGUCUCAAAAGGCUUCUU; sense: sugars from the 5' end mmmrrrrmrmrrrrrrrmmmm, backbone not given here; antisense: sugars from the 5' end frrdrdrdmrmmrrrrmmrmm, backbone and T or U not given here)
- expression of PUMA (PUMA): greatly increased
- tumor volume reduced as compared to control ([2]; after 36 days, liposomal formulation): 2 fold
- tumor weight reduced ([2]; endpoint day): more than 2 fold
